Experimental data taken from US8426406B2, “Glucocorticoid receptor agonist comprising 2,2,4-trimethyl-6-phenyl-1,2-dihydroquinoline derivatives having substituted oxy group” (Santen Pharmaceutical Co., Ltd., priority 2008, dated 2013).

System: IL-6 production induced by lipopolysaccharide (LPS) in human corneal epithelial cells
Assay: Evaluation test for GR agonist activity: inhibition of LPS-induced IL-6 production in human corneal epithelial cells (HCE-T)
Assay type: cell-based
Conditions: Corneal epithelial cell, 10 μL of 100 μM test compound solution per well, 4 hours incubation, efficacy relative to DEX
Protocol: In order to evaluate a GR agonist activity of the present compound, the inhibitory effects on the IL-6 production induced by lipopolysaccharide (LPS) in human corneal epithelial cells. IL-6 levels in the conditioned medium were measured using the HTRF human IL-6 Kit (boehringer-Ingelheim, Cat No. 62IL6PEB), and the procedure was carried out according to the protocol attached to the kit. Hereinafter, the specific method will be described.
LPS solution: After LPS was dissolved in phosphate buffer solution (hereinafter referred to as PBS(−)), the resulting solution was diluted with 10% FBS-DMEM/F12 medium, whereby a 1 μg/mL LPS solution was prepared.
After a test compound was dissolved in dimethylsulfoxide (hereinafter referred to as DMSO), the resulting solution was diluted with 10% FBS-DMEM/F12 medium, whereby a 100 μM test compound solution was prepared. A 100 μM DEX solution was prepared by the same method, and the inhibitory ratio of IL-6 production of DEX was evaluated to use for calculating efficacy (% DEX).
Used cell: SV40-immortalized human corneal epithelial cells (HCE-T) (RIKEN)
1) HCE-T cells were harvested, and seeded at 2.0×10^4 cells/0.1 mL/well in a 96-well plate.
2) After incubation overnight, the medium was removed and a 80 μL of new 10% FBS-DMEM/Ham's F12 medium was added into each well.
3) A 10 μL of test compounds solution was added into each well.
4) A 10 μL of LPS solution was added into each well.
5) As a negative control, a 10 μL of 10% FBS-DMEM/Ham's F12 medium was added into each well instead of a test compound solution and a LPS solution.
6) As a positive control, a 10 μL of 10% FBS-DMEM/Ham's F12 medium containing 1% DMSO was added into each well instead of a test compound solution.
7) After 4 hours incubation, supernatants were collected and IL-6 levels in the supernatants were quantitated using the HTRF human IL-6 Kit.
8) The inhibition ratio of IL-6 production (%) was calculated according to the following equation.
The inhibition ratio of IL-6 production (%) was calculated according to the following equation. The inhibition ratio of IL-6 production(%)=100×[1−(IL-6 level in each group−mean value of IL-6 level in negative control)/(mean value of IL-6 level in positive control−mean value of IL-6 level in negative control)](%)
Furthermore, the inhibition ratio of IL-6 production (efficacy (% DEX)) was also calculated according to the following equation. Efficacy(% DEX)=100×{(mean value of IL-6 inhibition in compound-treated group)/(mean value of IL-6 inhibition in DEX-treated group)}(%) (Result and Discussion)

Compound | Emax
COc1cc(OC(=O)c2ccccc2OC(C)=O)ccc1-c1ccc2c(c1COc1cc(F)ccc1C)C(C)=CC(C)(C)N2 [Compound 1-36, 6-[4-(2-Acetoxybenzoyloxy)-2-methoxyphenyl]-5-(5-fluoro-2-methylphenoxymethyl)-2,2,4-trimethyl-1,2-dihydroquinoline] | 75%
COc1cc(OC(=O)Cc2ccccc2)ccc1-c1ccc2c(c1COc1cc(F)ccc1C)C(C)=CC(C)(C)N2 [Compound 1-15, 5-(5-Fluoro-2-methylphenoxymethyl)-6-(2-methoxy-4-phenylacetoxyphenyl)-2,2,4-trimethyl-1,2-dihydroquinoline] | 77%
CCS(=O)(=O)Oc1ccc(-c2ccc3c(c2COC(=O)c2ccc(C)s2)C(C)=CC(C)(C)N3)c(OC)c1 [Compound 4-32, 6-(4-Ethylsulfonyloxy-2-methoxyphenyl)-5-(5-methylthiophen-2-ylcarbonyloxymethyl)-2,2,4-trimethyl-1,2-dihydroquinoline] | 77%
COc1cc(OC(=O)c2ccccc2SC)ccc1-c1ccc2c(c1COc1cc(F)ccc1C)C(C)=CC(C)(C)N2 [Compound 1-38] | 75%
COc1cc(OC(=O)c2ccccc2C)ccc1-c1ccc2c(c1COC(=O)c1ccc(C)s1)C(C)=CC(C)(C)N2 [Compound 1-143, 6-[2-Methoxy-4-(2-methylbenzoyloxy)phenyl]-5-(5-methylthiophen-2-ylcarbonyloxymethyl)-2,2,4-trimethyl-1,2-dihydroquinoline] | 96%
COc1ccccc1NCc1c(-c2ccc(OC(=O)c3ccoc3)cc2OC)ccc2c1C(C)=CC(C)(C)N2 [Compound 1-95, 6-[4-(Furan-3-ylcarbonyloxy)-2-methoxyphenyl]-5-(2-methoxyphenylaminomethyl)-2,2,4-trimethyl-1,2-dihydroquinoline] | 87%
COc1cc(OC(=O)c2cccnc2)ccc1-c1ccc2c(c1COC(=O)c1ccc(C)cc1)C(C)=CC(C)(C)N2 [Compound 1-133, 5-(4-Methylbenzoyloxymethyl)-6-[2-methoxy-4-(pyridin-3-ylcarbonyloxy)phenyl]-2,2,4-trimethyl-1,2-dihydroquinoline] | 74%
COc1cc(OC(=O)N(C)C)ccc1-c1ccc2c(c1COc1cc([N+](=O)[O-])ccc1C)C(C)=CC(C)(C)N2 [Compound 6-33, 6-(4-Dimethylaminocarbonyloxy-2-methoxyphenyl)-5-(2-methyl-5-nitrophenoxymethyl)-2,2,4-trimethyl-1,2-dihydroquinoline] | 78%
COc1cc(OC(=O)c2ccsc2)ccc1-c1ccc2c(c1COC(=O)c1ccc(C)s1)C(C)=CC(C)(C)N2 [Compound 1-147, 6-[2-Methoxy-4-(thiophen-3-ylcarbonyloxy)phenyl]-5-(5-methylthiophen-2-ylcarbonyloxymethyl)-2,2,4-trimethyl-1,2-dihydroquinoline] | 80%
CCN(CCN(C)C)C(=O)Oc1ccc(-c2ccc3c(c2COc2cc(F)ccc2C)C(C)=CC(C)(C)N3)c(OC)c1 [Compound 6-20, 6-[4-[N-(2-Dimethylaminoethyl)-N-ethylaminocarbonyloxy]-2-methoxyphenyl]-5-(5-fluoro-2-methylphenoxymethyl)-2,2,4-trimethyl-1,2-dihydroquinoline] | 79%
CCS(=O)(=O)Oc1ccc(-c2ccc3c(c2COc2cc(F)ccc2C)C(C)=CC(C)(C)N3)c(OC)c1 [Compound 4-4, 6-(4-Ethylsulfonyloxy-2-methoxyphenyl)-5-(5-fluoro-2-methylphenoxymethyl)-2,2,4-trimethyl-1,2-dihydroquinoline] | 89%
CCCS(=O)(=O)Oc1ccc(-c2ccc3c(c2CNc2cc(F)ccc2C)C(C)=CC(C)(C)N3)c(OC)c1 [Compound 4-21, 5-(5-Fluoro-2-methylphenylaminomethyl)-6-(2-methoxy-4-propylsulfonyloxyphenyl)-2,2,4-trimethyl-1,2-dihydroquinoline] | 82%
